# Test results published in US5763430A, “Method of treating a viral infection by administering a steroid compound” (priority 1995, dated 1998).
# Key:
# E. coli = assay: antibiotic activity (MIC); assay type: cell-based; conditions: Escherichia coli; E. coli; read-out: MIC
# Description: (§1) Thus, it is possible to achieve an antimicrobial steroid with or without squalamine-like pharmacological activity.
# S. aureus = assay: antibiotic activity (MIC); assay type: cell-based; conditions: Staphylococcus aureus; S. aureus; read-out: MIC
# Description: as §1
# C. albicans = assay: antibiotic activity (MIC); assay type: cell-based; conditions: Candida albicans; C. albicans; read-out: MIC
# Description: as §1
# P. aerug = assay: antibiotic activity (MIC); assay type: cell-based; conditions: P. aerug; read-out: MIC
# Description: as §1
# [1] = system: human microvascular cells; assay: inhibition of endothelial cell cord formation in vitro; assay type: cell-based; conditions: for minimal effective concentration: Homo sapiens, Endothelial cell, Table II, read-out: Minimum Effective Concentration, Cord Formation; on effect on endothelial cord formation: key: +: Inhibition of angiogenesis; -: No inhibition of angiogenesis; Toxic; *: cell rounding @ 10 µg/ml
# Description: Endothelial cells have the capacity in vitro to form tubular aggregates resembling capillaries in various early stages of formation. This conversion occurs under relatively specific conditions, in which essential growth factors along with an effective substratum are provided. It has been shown that both the interaction of growth factors with the endothelial cell and its attachment to a substratum activate the NHE. The activation of this exchanger is believed to be required for subsequent morphologic transformation of the endothelial cell into a multicellular tubular structure.
# To assess the effect of compounds on the cord-like structures formed by human microvascular cells when plated in the presence of VEGF (Vascular Endothelial Growth Factor) and basic fibroblast growth factor on a collagen matrix, a standard cord formation assay was used.
# [2] = system: chick embryo vitelline capillaries; assay: chick embryo vitelline capillary regression assay; assay type: in vivo
# Method: Using the chick embryo vitelline capillaries assay, compounds were tested for their ability to induce capillary regression. Each compound was applied in 0.1 ml of 15% Ficol 400 and PBS onto the embryo, and vascular regression was assessed after 60 minutes.
# The 3-day chick embryo consists of an embryonic disc from which numerous vessels emerge and return, forming a "FIG. 8"-shaped structure--the embryo in the center with vascular loops extending outward over both poles. […] Following a lag period of around 15 minutes, the constriction of continuity between capillary and secondary vessels, generally on the "venous" side, was observed. Continued pulsatile blood flow progressed, resulting in a "swelling" of the blind tube, followed by a pinching off of the remaining connection and formation of an enclosed vascular sac resembling a "blood island." This process progressed until only the largest vessels remained intact.
# [3] = system: stage 59-60 Xenopus tadpole; assay: Xenopus tadpole assay; conditions: for similarity of pharmacologic activity in tadpole assay: in vivo; for tadpole response: 10 μg/ml, about 1 hour
# [4] = effect on arterial resistance in the rat; assay type: in vivo; conditions: 40 μg noradrenaline, 30 minutes after compound 1436
# Method: A 200-g rat was catheterized in the right carotid artery, and the compound was introduced over a ten-second period to a total dosage of 5 mg/kg. Within 30 seconds, the mean arterial pressure had fallen from about 100 mm Hg to about 70 mm Hg, with a marked reduction in pulse pressure from about 40 mm to about 10 mm. […] If cardiac output was basically unaffected, reduction in blood pressure would have resulted principally from a reduction in system resistance.
# At that time, 40 μg of noradrenaline was introduced.
Structure (SMILES),MIC (E. coli) [µg/mL],MIC (S. aureus) [µg/mL],MIC (C. albicans) [µg/mL],MIC (P. aerug) [µg/mL],effect on endothelial cord formation ([1]; 0.1 μg/ml),effect on endothelial cord formation ([1]; 1.0 μg/ml),effect on endothelial cord formation ([1]; 10.0 μg/ml),minimal effective concentration [1] [µg/mL],relative activity ([2]; Table 5),similarity of pharmacologic activity in tadpole assay [3],tadpole response [3],tadpole response ([3]; listed as compound 1360),effect on blood circulating through embryonic vessels ([2]; within 20 minutes),blood pressure after noradrenaline [4]
C[C@H](CCC(=O)O)[C@H]1CC[C@H]2[C@@H]3[C@H](O)C[C@@H]4C[C@@H](NCCN)CC[C@]4(C)[C@H]3CC[C@]12C [Compound 415],128,128,256,256,-,-,+/T,> 10,especially active,,,,,
COC(=O)CC[C@@H](C)[C@H]1CC[C@H]2[C@@H]3C[C@@H](O)[C@H]4C[C@H](NCCN)CC[C@]4(C)[C@H]3CC[C@]12C [Compound 431],32 to 64,16,8,128,,,,,,functionally similar to compound 1437,,,,
COC(=O)CC[C@@H](C)[C@H]1CC[C@H]2[C@@H]3C[C@@H](O)[C@H]4C[C@@H](NCCN)CC[C@]4(C)[C@H]3CC[C@]12C [Compound 432],8 to 16,1,2 to 4,64,,-,-,,,functionally similar to compound 1437,,,,
C[C@H](CCC(=O)O)[C@H]1CC[C@H]2[C@@H]3[C@H](O)C[C@@H]4C[C@@H](NCCCNCCCCNCCCN)CC[C@]4(C)[C@H]3CC[C@]12C [Compound 413],256,8,32,64,-,-,+,> 10,,effects like those produced by compound 1436,,,,
COC(=O)CC[C@@H](C)[C@H]1CC[C@H]2[C@@H]3CC[C@H]4C[C@H](NCCCNCCCCNCCCN)CC[C@]4(C)[C@H]3CC[C@]12C [Compound 458],32,4,2,64,,,,,,pharmacologic activity similar to that seen for FX 3,,,,
C[C@H](CCC(=O)O)[C@H]1CC[C@H]2[C@@H]3C[C@@H](O)[C@H]4C[C@@H](NCCN)CC[C@]4(C)[C@H]3CC[C@]12C [Compound 433],> 256,> 256,> 256,128,,,,,,functionally similar to compound 1437,,,,
C[C@H](CCC(=O)O)[C@H]1CC[C@H]2[C@@H]3[C@H](O)C[C@@H]4C[C@H](NCCN)CC[C@]4(C)[C@H]3CC[C@]12C [Compound 414],64,32,64,64,,,,,,potencies comparable to that of Fraction 1,,,,
C[C@H](CCC(=O)O)[C@H]1CC[C@H]2[C@@H]3[C@H](O)C[C@@H]4C[C@H](NCCCNCCCCNCCCN)CC[C@]4(C)[C@H]3CC[C@]12C [Compound 412],64,8,8,8,-,-,+,> 10,,pharmacologic activity similar to that seen for FX 3,,,,
"CC(COS(=O)(=O)O)C(=O)CC[C@@H](C)[C@H]1CC[C@H]2[C@@H]3[C@H](O)C[C@H]4C[C@@H](NCCCNCCCCN)CC[C@]4(C)[C@H]3CC[C@]12C (single isomer, unassigned) [Compound 1360]",128,8,32,,,,,,,,"Swelling and lysis of certain erythrocytes occurred, resulting in accumulation of nuclei within certain small vessels of the tail",extensive vasocclusion occurred within 60 minutes throughout the tail,exhibited a brighter red color,
COC(=O)CC[C@@H](C)[C@H]1CC[C@H]2[C@@H]3[C@H](O)C[C@@H]4C[C@@H](NCCN)CC[C@]4(C)[C@H]3CC[C@]12C [Compound 409],64,32,16,128,,,,,,functionally similar to compound 1437,,,,
COC(=O)CC[C@@H](C)[C@H]1CC[C@H]2[C@@H]3C[C@@H](O)[C@H]4C[C@H](NCCCNCCCCNCCCN)CC[C@]4(C)[C@H]3CC[C@]12C [Compound 465],32,2 to 4,4,128,,,,,,pharmacologic activity similar to that seen for FX 3,,,,
COC(=O)CC[C@@H](C)[C@H]1CC[C@H]2[C@@H]3CC[C@H]4C[C@@H](NCCCNCCCCNCCCN)CC[C@]4(C)[C@H]3CC[C@]12C [Compound 459],32,1 to 2,2,64,,,,,,pharmacologic activity similar to that seen for FX 3,,,,
COC(=O)CC[C@@H](C)[C@H]1CC[C@H]2[C@@H]3CC[C@@H]4C[C@H](NCCN)CC[C@]4(C)[C@H]3C[C@H](O)[C@]12C [Compound 416],8,8,32,16 to 32,,,,,,functionally similar to compound 1437,,,,
COC(=O)CC[C@@H](C)[C@H]1CC[C@H]2[C@@H]3[C@H](O)C[C@@H]4C[C@H](NCCN)CC[C@]4(C)[C@H]3CC[C@]12C [Compound 410],16,16,16,32,-,+,+,10,,functionally similar to compound 1437,,,,
"NC[C@H](O)c1ccc(O)c(O)c1 [noradrenaline, reference compound]",,,,,,,,,,,,,,An almost immediate increase in blood pressure
CC(C)CCC[C@@H](C)[C@H]1CC[C@H]2[C@@H]3[C@H](O)C[C@H]4C[C@@H](NCCCNCCCCN)CC[C@]4(C)[C@H]3CC[C@]12C [Compound 371],64,4,2,64,,,,,,effects like those produced by compound 1436,,,,
CC(C)CCC[C@@H](C)[C@H]1CC[C@H]2[C@@H]3[C@H](O)C[C@H]4C[C@H](N)CC[C@]4(C)[C@H]3CC[C@]12C [Compound 1363],> 256,2,2,> 256,,,,,,potencies comparable to that of Fraction 1,,,,
CC(C)CCC[C@@H](C)[C@H]1CC[C@H]2[C@@H]3[C@H](O)C[C@H]4C[C@H](NCCCNCCCCN)CC[C@]4(C)[C@H]3CC[C@]12C [Compound 370],32,4,2,64,,,,,,pharmacologic activity similar to that seen for FX 3,,,,
